Measurements: patent US20020137929A1, “1 - (3-heterocyclylphenyl) isothiourea, -isourea, -guanidine and -amidine herbicidal agents” (Intellectual Property Department, BASF Aktiengesellschaft, priority 1998, published 2002)

Assays:
[1] = test system: MOOVA (Monochoria); assay: Postemergence weed control under flooded paddy conditions; format: in vivo, Monochoria vaginalis; conditions: postemergence weeds
Method in brief: (§1)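 Containers holding 3–5 cm weeds and rice at 1.5–2.5 leaves are flooded to 1.5–3 cm above soil. Compound in 50/50 v/v aqueous/acetone is then added directly to the water, about 0.0313–0.500 kg/ha. Plants are kept in the greenhouse and rated 0–9 visually at 3–4 weeks.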

[2] = test system: ECHORC (Watergrass (Calif.)); assay: as above; format: in vivo, Echinochloa oryzoides; conditions: postemergence weeds
Method in brief: as §1

[3] = test system: CYPSE (Flatsedge); assay: as above; format: in vivo, Cyperus serotinus; conditions: postemergence weeds
Method in brief: as §1

[4] = test system: CYPIR (Rice Flatsedge); assay: as above; format: in vivo, Cyperus iria; conditions: postemergence weeds
Method in brief: as §1

[5] = test system: IPOSS (Morningglory Spp.); assay: Preemergence herbicidal evaluation; format: in vivo, Ipomoea Spp.; conditions: rated 4-5 weeks after treatment
Method in brief: (§2)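 Seeds were planted in potting soil in cups, then sprayed preemergence with the test compound in aqueous acetone at about 0.0156 to 0.500 kg per hectare. Cups were kept under greenhouse conditions and visually rated 4–5 weeks after treatment on a 0–9 scale against an untreated control.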

[6] = test system: IPOSS (Morningglory Spp.); assay: Postemergence herbicidal evaluation; format: in vivo, Ipomoea Spp.
Method in brief: (§3)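 Two-week seedlings sprayed postemergence at 40 psi; formulation: 1:1 acetone/water, 0.5% TWEEN 20; application ≈0.0156–0.500 kg/ha. Greenhouse grow-out, then 0–9 visual scoring at 4–5 weeks.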

[7] = test system: GLXMA (Soybean); assay: Postemergence herbicidal evaluation; format: in vivo, Glycine max
Method in brief: as §3

[8] = test system: GLXMA (Soybean); assay: Preemergence herbicidal evaluation; format: in vivo, Glycine max; conditions: rated 4-5 weeks after treatment
Method in brief: as §2

[9] = Rate 0.0313 kg/ha, rated 3 to 4 weeks after treatment
[10] = Rate 0.0625 kg/ha, rated 3 to 4 weeks after treatment
[11] = Rate 0.1250 kg/ha, rated 3 to 4 weeks after treatment
[12] = Rate 0.2500 kg/ha, rated 3 to 4 weeks after treatment
[13] = rate 0.0313 kg/ha, 3-4 weeks after treatment
[14] = rate 0.0625 kg/ha, 3-4 weeks after treatment
[15] = rate 0.1250 kg/ha, 3-4 weeks after treatment
[16] = rate 0.2500 kg/ha, 3-4 weeks after treatment
[17] = rate 0.5000 kg/ha, 3-4 weeks after treatment

CCOC(=O)CN1C(=O)C(Cc2ccccc2OC(C)C(=O)O)S/C1=N/c1cc(-n2c(=O)cc(C(F)(F)F)n(C)c2=O)c(F)cc1Cl (stereo not shown) [Compound 114, 5-[o-(1-Carboxyethoxy)benzyl]-2-{{2-chloro-5-[3,6-dihydro-3-methyl-2,6-dioxo-4-(trifluoromethyl)-1(2H)-pyrimidinyl]-4-fluorophenyl}imino}-4-oxo-3-thiazolidineacetic acid, 3-ethyl ester]
Herbicidal rating MOOVA [1, 9]: 6.0 | Herbicidal rating MOOVA [1, 10]: 8.0 | Herbicidal rating MOOVA [1, 11]: 9.0 | Herbicidal rating MOOVA [1, 12]: 9.0 | Herbicidal rating ECHORC [2, 9]: 0.0 | Herbicidal rating ECHORC [2, 10]: 0.0 | Herbicidal rating ECHORC [2, 11]: 0.0 | Herbicidal rating ECHORC [2, 12]: 0.0 | Herbicidal rating CYPSE [3, 9]: 0.0 | Herbicidal rating CYPSE [3, 10]: 0.0 | Herbicidal rating CYPSE [3, 11]: 0.0 | Herbicidal rating CYPSE [3, 12]: 0.0 | Herbicidal rating CYPIR [4, 9]: 0.0 | Herbicidal rating CYPIR [4, 10]: 0.0 | Herbicidal rating CYPIR [4, 11]: 4.0 | Herbicidal rating CYPIR [4, 12]: 7.0

CC1SC(=Nc2cc(N3C(=O)C4=C(CCCC4)C3=O)c(F)cc2Cl)N(C)C1=O (stereo not shown) [Compound 4]
Herbicidal rating MOOVA [1, 13]: 1.0 | Herbicidal rating MOOVA [1, 14]: 3.5 | Herbicidal rating MOOVA [1, 15]: 4.0 | Herbicidal rating MOOVA [1, 16]: 5.5 | Herbicidal rating MOOVA [1, 17]: 8.0 | IPOSS preemergence herbicidal rating ([5]; rate 0.1250 kg/ha): 0.0 | IPOSS preemergence herbicidal rating ([5]; rate 0.2500 kg/ha): 2.0 | IPOSS preemergence herbicidal rating ([5]; rate 0.5000 kg/ha): 9.0 | Herbicidal rating ECHORC [2, 13]: 1.0 | Herbicidal rating ECHORC [2, 14]: 2.0 | Herbicidal rating ECHORC [2, 15]: 3.5 | Herbicidal rating ECHORC [2, 16]: 4.0 | Herbicidal rating ECHORC [2, 17]: 5.0 | Herbicidal rating CYPSE [3, 13]: 0.0 | Herbicidal rating CYPSE [3, 14]: 0.0 | Herbicidal rating CYPSE [3, 15]: 0.0 | Herbicidal rating CYPSE [3, 16]: 0.0 | Herbicidal rating CYPSE [3, 17]: 0.0 | Herbicidal rating CYPIR [4, 13]: 0.0 | Herbicidal rating CYPIR [4, 14]: 2.0 | Herbicidal rating CYPIR [4, 15]: 4.5 | Herbicidal rating CYPIR [4, 16]: 6.5 | Herbicidal rating CYPIR [4, 17]: 9.0 | IPOSS herbicidal rating ([6]; rate 0.0313 kg/ha): 0.0 | IPOSS herbicidal rating ([6]; rate 0.0625 kg/ha): 0.0 | IPOSS herbicidal rating ([6]; rate 0.1250 kg/ha): 0.0 | IPOSS herbicidal rating ([6]; rate 0.2500 kg/ha): 1.0 | IPOSS herbicidal rating ([6]; rate 0.5000 kg/ha): 4.0 | GLXMA herbicidal rating ([7]; rate 0.0313 kg/ha): 2.0 | GLXMA herbicidal rating ([7]; rate 0.0625 kg/ha): 2.5 | GLXMA herbicidal rating ([7]; rate 0.1250 kg/ha): 4.5 | GLXMA herbicidal rating ([7]; rate 0.2500 kg/ha): 4.5 | GLXMA herbicidal rating ([7]; rate 0.5000 kg/ha): 4.5 | GLXMA preemergence herbicidal rating ([8]; rate 0.1250 kg/ha): 0.0 | GLXMA preemergence herbicidal rating ([8]; rate 0.2500 kg/ha): 2.0 | GLXMA preemergence herbicidal rating ([8]; rate 0.5000 kg/ha): 4.0
